Experimental data as given in EP1948196B1, “USE OF TETRAORGANOSILICON COMPOUNDS” (Salama, Zoser B., priority 2005, dated 2007).
Converted amounts (≈) assume the structure as drawn. Numbered stars: 1 amine (or outer) side, 2 acyl side, 3 side chain; on linkers, the order of the positions; unused ones are H or OH. Bridge positions count the residues as written; N and C are the ends. Peptide text beside a SMILES is read from it. I, II: the chains in the order shown. OSiEt2O = CC[Si](CC)(O[*:1])O[*:2]

Key:
Medulloblastome = assay: Effect on medulloblastomas
MIAPaCa2 - Pankreaskrebs = assay: MTT assay / EZ4U test, 4 days; assay type: cell-based; details: Homo sapiens, MIA PaCa-2, read-out: IC50 MlAPaCa2
Description: (§1) Die Silane 1, 5, 9, 10, 11, 13, 15, 16 wurden in Ethanol gelöst und in MTT Assays in einer anfänglichen Konzentration von 200 µg/ml (5 Lösungsschritte 200 - 12.5 µg/ml) verwendet. Die Platten wurde für eine Dauer.von 4 Tagen inkubiert und die Entwicklungsfähigkeit mithilfe des EZ4U Test bestimmt. Die IC50 Werte wurden ausgehend von Dosierungs-Reaktions-Linien berechnet Zelllinien: Colo 205 and HT29 - Kolonkarzinom; BxPC3 and MIAPaCa2 - Pankreaskrebs; CRO2B - karzinoid, A431 Epidermalkarzinom; normale Zellen: WI38 - humane embryonale Fibroblasten; NIH3T3 - mausartige Fibroblasten; IEC6 - mausartige Enterozyten.

[1] = test system: WI38 - humane embryonale Fibroblasten; assay: MTT assay / EZ4U test, 4 days; assay type: cell-based; details: Homo sapiens, WI-38, read-out: IC50 WI38
Description: as §1

CRO2B - karzinoid = assay: MTT assay / EZ4U test, 4 days; assay type: cell-based; details: read-out: IC50 CR02B
Description: as §1

A431 Epidermalkarzinom = assay: MTT assay / EZ4U test, 4 days; assay type: cell-based; details: Homo sapiens, A-431, read-out: IC50 A431
Description: as §1

[2] = test system: NIH3T3 - mausartige Fibroblasten; assay: MTT assay / EZ4U test, 4 days; assay type: cell-based; details: Mus musculus, NIH3T3, read-out: IC50 NIH3T3
Description: as §1

HT29 - Kolonkarzinom = assay: MTT assay / EZ4U test, 4 days; assay type: cell-based; details: Homo sapiens, HT-29, read-out: IC50 HT29
Description: as §1

Colo 205 - Kolonkarzinom = assay: MTT assay / EZ4U test, 4 days; assay type: cell-based; details: Homo sapiens, COLO 205, read-out: IC50 Colo205
Description: as §1

[3] = test system: IEC6 - mausartige Enterozyten; assay: MTT assay / EZ4U test, 4 days; assay type: cell-based; details: Rattus norvegicus, IEC-6, read-out: IC50 IEC6
Description: as §1

BxPC3 - Pankreaskrebs = assay: MTT assay / EZ4U test, 4 days; assay type: cell-based; details: Homo sapiens, BXPC-3, read-out: IC50 BxPC3
Description: as §1

T47D (Brustkrebs) = assay: MTT test, triplicate, two-fold dilutions; assay type: cell-based; details: Homo sapiens, T47D, read-out: IC50 T47D
Description: (§2) Die Silan wurden in Ethanol aufgelöst und in Zellkulturmedien in Konzentrationen von bis zu 500 µg/ml resuspendiert. Es wurden MTT Tests in dreifacher Ausführung durchgeführt, für welche doppelte Lösungen (7 Schritte) und colo205 (Kofon-Karzinom), BxPC3 (pankreatisches Adenokarzinom) sowie T47D (Brustkrebs) benutzt wurden.

[4] = test system: BxPC3 (pankreatisches Adenokarzinom); assay: MTT test, triplicate, two-fold dilutions; assay type: cell-based; details: Homo sapiens, BXPC-3, read-out: IC50 BxPC3
Description: as §2

colo205 (Kofon-Karzinom) = assay: MTT test, triplicate, two-fold dilutions; assay type: cell-based; details: Homo sapiens, COLO 205, read-out: IC50 Colo205
Description: as §2

Normale Zellen = assay: Mean IC50 over all normal cell lines; assay type: cell-based; details: read-out: IC50 Normale Zellen (Durchschnitt ± SD)
Description: as §1
(§3) Mittelwerte-IC50 für alle Krebs- oder normalen Zelllinien: […]

Krebszellen = assay: Mean IC50 over all cancer cell lines; assay type: cell-based; details: read-out: IC50 Krebszellen (Durchschnitt ± SD)
Description: as §1, §3

Colo205 Kolonkarzinom = assay: subG1 apoptotic fraction, propidium iodide, flow cytometry; assay type: cell-based; details: 50 µg/ml, 4 Tage
Description: (§4) Die Zellen (IEC6 mausartige Enterozyten; Panc1 Pankreaskrebszellen; Colo205 Kolonkarzinom) wurden mit 50 µg/ml Silanen inkubiert und nach 4-tägiger Aussetzung auf DNA eingefärbt (Propidiumiodid). Die SubG1 Zellteilung wurde mittels Durchflusscytometrie bestimmt.

[5] = test system: Panc1 Pankreaskrebszellen; assay: as above; assay type: cell-based; details: 50 µg/ml, 4 Tage
Description: as §4

[6] = test system: IEC6 mausartige Enterozyten; assay: as above; assay type: cell-based; details: 50 µg/ml, 4 Tage
Description: as §4

Compound: C[Si](C)(OC(=O)CNC(=O)CNC(=O)CNC(=O)CNC(=O)CNC(=O)CNC(=O)CNC(=O)CNC(=O)CN)OC(=O)CNC(=O)CNC(=O)CNC(=O)CNC(=O)CNC(=O)CNC(=O)CNC(=O)CNC(=O)CN [Dimethyl bis(nonaglycyl)silylester]
- Wirkung gegen Medulloblastome (Medulloblastome): zeigen eine Wirkung

Compound: CC[Si](CC)(OC(=O)[C@H](Cc1ccccc1)NC(=O)[C@H](Cc1ccccc1)NC(=O)[C@H](Cc1ccccc1)NC(=O)[C@H](Cc1ccccc1)NC(=O)[C@H](Cc1ccccc1)NC(=O)[C@H](Cc1ccccc1)NC(=O)[C@H](Cc1ccccc1)NC(=O)[C@H](Cc1ccccc1)NC(=O)[C@@H](N)Cc1ccccc1)OC(=O)[C@H](Cc1ccccc1)NC(=O)[C@H](Cc1ccccc1)NC(=O)[C@H](Cc1ccccc1)NC(=O)[C@H](Cc1ccccc1)NC(=O)[C@H](Cc1ccccc1)NC(=O)[C@H](Cc1ccccc1)NC(=O)[C@H](Cc1ccccc1)NC(=O)[C@H](Cc1ccccc1)NC(=O)[C@@H](N)Cc1ccccc1 [Diethyl bis(nonaphenylalanyl)silylester] (I: H-FFFFFFFFF / II: H-FFFFFFFFF; linker I:C-II:C via OSiEt2O)
- Wirkung gegen Medulloblastome (Medulloblastome): zeigen eine Wirkung

Compound: CCCCCCCCCCCCCCCCCC(=O)O[Si](CC)(CC)OC(=O)CCCCCCCCCCCCCCCCC [Si13, Di (octadecanoyloxy) diethylsilan]
- IC50 (MIAPaCa2 - Pankreaskrebs): 110 µg/mL (≈ 168 µM)
- IC50 [1]: 16.5 µg/mL (≈ 25.3 µM)
- IC50 (CRO2B - karzinoid): 17.8 µg/mL (≈ 27.3 µM)
- IC50 (A431 Epidermalkarzinom): 15.9 µg/mL (≈ 24.3 µM)
- IC50 [2]: 20.6 µg/mL (≈ 31.5 µM)
- IC50 (HT29 - Kolonkarzinom): 18.3 µg/mL (≈ 28 µM)
- IC50 (Colo 205 - Kolonkarzinom): 47.5 µg/mL (≈ 72.7 µM)
- IC50 [3]: 17 µg/mL (≈ 26 µM)
- IC50 (BxPC3 - Pankreaskrebs): 17.5 µg/mL (≈ 26.8 µM)
- IC50 (T47D (Brustkrebs)): 8 µg/mL (≈ 12.2 µM)
- IC50 [4]: 10 µg/mL (≈ 15.3 µM)
- IC50 (colo205 (Kofon-Karzinom)): 125 µg/mL (≈ 191 µM)
- IC50 (Normale Zellen): 18 µg/mL (≈ 27.6 µM)
- IC50 (Krebszellen): 17.3 µg/mL (≈ 26.5 µM)
- subG1 apoptotische Zellteilung Colo205 (Colo205 Kolonkarzinom): 4,8 ± 0,49
- subG1 apoptotische Zellteilung Panc1 [5]: 36,7 ± 0,5

Compound: CCCCCCCCCCCCCCCCC(=O)O[Si](CC)(CC)OC(=O)CCCCCCCCCCCCCCCC [Si1, Di (heptadecanoyloxy) diethylsilan]
- IC50 (MIAPaCa2 - Pankreaskrebs): 50 µg/mL (≈ 80 µM)
- IC50 [1]: 26.2 µg/mL (≈ 41.9 µM)
- IC50 (CRO2B - karzinoid): 22.8 µg/mL (≈ 36.5 µM)
- IC50 (A431 Epidermalkarzinom): 31.8 µg/mL (≈ 50.9 µM)
- IC50 [2]: 36.2 µg/mL (≈ 57.9 µM)
- IC50 (HT29 - Kolonkarzinom): 41.5 µg/mL (≈ 66.4 µM)
- IC50 (Colo 205 - Kolonkarzinom): 37 µg/mL (≈ 59.2 µM)
- IC50 [3]: 28.1 µg/mL (≈ 45 µM)
- IC50 (BxPC3 - Pankreaskrebs): 37 µg/mL (≈ 59.2 µM)
- IC50 (T47D (Brustkrebs)): 15 µg/mL (≈ 24 µM)
- IC50 [4]: 15 µg/mL (≈ 24 µM)
- IC50 (colo205 (Kofon-Karzinom)): 125 µg/mL (≈ 200 µM)
- IC50 (Normale Zellen): 30.1 µg/mL (≈ 48.2 µM)
- IC50 (Krebszellen): 33.2 µg/mL (≈ 53.1 µM)
- subG1 apoptotische Zellteilung Colo205 (Colo205 Kolonkarzinom): 3.0 ± 0,14
- subG1 apoptotische Zellteilung Panc1 [5]: 57,7 ± 0,07
- subG1 apoptotische Zellteilung IEC6 [6]: 6,55 ± 0,49
